From the supplement of paper PMC8967900

Key:
Assay in all cases: selective drug sensitivity score (sDSS, relative to normal bone marrow) (sDSS (score)); higher = more potent and effective on the cell line relative to normal bone marrow cells
Settings in all cases: 72 h
380 = test system: 380
ALL-SIL = test system: ALL-SIL
CCRF-CEM = test system: CCRF-CEM
CCRF-HSB2 = test system: CCRF-HSB2
COG-LL-394h = test system: COG-LL-394h
DND-41 = test system: DND-41
HAL-01 = test system: HAL-01
KARPAS-45 = test system: KARPAS-45
KASUMI-10 = test system: KASUMI-10
KOPN-8 = test system: KOPN-8
LC4-1 = test system: LC4-1
MHH-CALL-2 = test system: MHH-CALL-2
MHH-CALL-3 = test system: MHH-CALL-3
MHH-CALL-4 = test system: MHH-CALL-4
NALL-1 = test system: NALL-1
P12-ICHIKAWA = test system: P12-ICHIKAWA
P30-OHKUBO = test system: P30-OHKUBO
PF-382 = test system: PF-382
REH = test system: REH
SEM cells = test system: SEM cells
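Further: ALL cell lines in 384-well plates, five doses spanning 10,000-fold, each plate scaled between vehicle and 100 µmol/L benzalkonium chloride controls, sDSS an adapted area-under-curve metric.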

Compound | selective drug sensitivity score 380 | selective drug sensitivity score (ALL-SIL) | selective drug sensitivity score (CCRF-CEM) | selective drug sensitivity score (CCRF-HSB2) | selective drug sensitivity score (COG-LL-394h) | selective drug sensitivity score (DND-41) | selective drug sensitivity score (HAL-01) | selective drug sensitivity score (KARPAS-45) | selective drug sensitivity score (KASUMI-10) | selective drug sensitivity score (KOPN-8) | selective drug sensitivity score (LC4-1) | selective drug sensitivity score (MHH-CALL-2) | selective drug sensitivity score (MHH-CALL-3) | selective drug sensitivity score (MHH-CALL-4) | selective drug sensitivity score (NALL-1) | selective drug sensitivity score (P12-ICHIKAWA) | selective drug sensitivity score (P30-OHKUBO) | selective drug sensitivity score (PF-382) | selective drug sensitivity score (REH) | selective drug sensitivity score (SEM cells)
CN1CCC(COc2cnc(-c3cccc(Cn4nc(-c5cccc(C#N)c5)ccc4=O)c3)nc2)CC1 [Tepotinib] (top concentration 1000 nM) | -0.08 | -0.08 | -0.08 | 0.02 | -0.08 | -0.08 | -0.08 | -0.08 | -0.08 | -0.08 | 4.62 | -0.08 | -0.08 | -0.08 | -0.08 | -0.08 | -0.08 | -0.08 | -0.08 | 0.22
CC(C)C(=O)Nc1ccc([N+](=O)[O-])c(C(F)(F)F)c1 [Flutamide] (top concentration 10000 nM) | -0.56 | -0.26 | -0.16 | -0.46 | -0.26 | -0.16 | 3.94 | 0.74 | -0.56 | 4.24 | -0.46 | 9.74 | -0.56 | 1.24 | 8.04 | 0.74 | 0.94 | 0.14 | -0.56 | 2.44
COc1cc2c(N3CCN(C(=O)Nc4ccc(OC(C)C)cc4)CC3)ncnc2cc1OCCCN1CCCCC1 [Tandutinib] (top concentration 1000 nM) | 0 | 0 | 0 | 0 | 0.3 | 2.3 | 0 | 0 | 4.5 | 0 | 0 | 0 | 0 | 0 | 0 | 0 | 0 | 0 | 0 | 4.2
COc1cc2ncnc(Nc3ccc(F)c(Cl)c3)c2cc1NC(=O)/C=C/CN1CCCCC1 [Dacomitinib] (top concentration 1000 nM) | -1.64 | -1.04 | 0.26 | 3.76 | -1.64 | -1.04 | 2.66 | 0.36 | -0.54 | -0.34 | -0.94 | 2.06 | 2.06 | 1.86 | -1.64 | -1.44 | 0.96 | -0.94 | -1.04 | 0.86
COc1cc2c(Oc3ccc4[nH]c(C)cc4c3F)ncnc2cc1OCCCN1CCCC1 [Cediranib] (top concentration 1000 nM) | 0 | 0 | 0.1 | 3.4 | 0 | 0 | 5.7 | 0.2 | 0 | 0 | 0 | 7.2 | 0 | 0 | 0 | 0 | 2.7 | 0 | 0 | 0.2
CNC(=O)c1ccc(-c2cnc3ncc(Cc4ccc5ncccc5c4)n3n2)cc1F [Capmatinib] (top concentration 1000 nM) | 2.04 | -0.06 | 0.04 | -0.06 | -0.06 | 0.34 | 2.34 | -0.06 | -0.06 | -0.06 | 0.64 | -0.06 | -0.06 | -0.06 | -0.06 | -0.06 | -0.06 | -0.06 | -0.06 | -0.06
CS(=O)(=O)CCNCc1ccc(-c2ccc3ncnc(Nc4ccc(OCc5cccc(F)c5)c(Cl)c4)c3c2)o1 [Lapatinib] (top concentration 1000 nM) | 0 | 0 | 0 | 0 | 0 | 0 | 2.2 | 0 | 0 | 0 | 0 | 12.1 | 0 | 0 | 0 | 0 | 0.3 | 0 | 0 | 0
CCCN(CCC)C(=O)C1=Cc2ccc(-c3ccc(C(=O)N4CCCC4)cc3)cc2N=C(N)C1 [Motolimod] (top concentration 10000 nM) | -4.38 | -3.48 | -3.38 | -3.48 | 0.42 | -4.08 | -4.18 | -3.48 | -2.28 | 1.52 | -3.58 | -3.98 | -4.48 | -4.48 | -4.48 | -3.18 | -1.58 | -2.28 | -2.48 | -3.38
COCCOc1cnc2ccn([C@H](C)c3nnc4c(F)cc(-c5cnn(C)c5)cn34)c(=O)c2c1 [AMG-337] (top concentration 10000 nM) | 3.04 | -0.06 | -0.06 | -0.06 | -0.06 | -0.06 | 5.24 | -0.06 | -0.06 | 1.54 | -0.06 | 7.54 | 4.94 | -0.06 | 2.14 | -0.06 | 0.84 | -0.06 | 1.24 | -0.06
C=CCN(/C=C1/C(=O)O[C@H](COC)[C@@]2(C)C1=C(O)C(=O)C1=C2[C@H](OC(C)=O)C[C@]2(C)C(=O)CC[C@@H]12)CC=C [Sonolisib] (top concentration 10000 nM) | -0.56 | 2.64 | -0.66 | -0.76 | -0.66 | 1.64 | 1.94 | -0.76 | -0.76 | -0.16 | -0.56 | 0.34 | -0.76 | -0.06 | -0.76 | -0.76 | -0.16 | -0.76 | -0.76 | -0.76
O=c1[nH]cc(F)c(=O)[nH]1 [Fluorouracil] (top concentration 10000 nM) | 1.86 | -0.64 | 3.06 | -0.64 | -0.34 | -0.64 | -0.44 | 0.46 | 2.96 | 2.96 | 5.16 | -0.04 | -0.24 | -0.14 | -0.24 | 0.46 | 3.16 | -0.64 | 1.76 | 2.76
NC(=S)N/N=C/c1ncccc1N [Triapine] (top concentration 10000 nM) | 5.88 | 6.78 | 2.68 | 8.48 | 0.88 | 7.38 | 2.18 | -0.12 | 6.88 | 1.78 | 1.78 | 3.48 | 2.08 | 2.18 | 3.48 | 5.18 | 2.88 | 1.28 | 3.88 | 2.18
N#CC(c1ccnc(OCc2ccc(CN3CCOCC3)cc2)n1)c1nc2ccccc2s1 (stereo not given) [Bentamapimod] (top concentration 10000 nM) | -0.46 | 2.34 | 3.94 | 4.04 | 3.44 | 3.64 | 2.74 | 5.54 | -0.46 | 5.64 | 2.34 | 4.94 | -0.46 | -0.46 | 1.14 | 2.94 | 5.34 | 3.84 | 6.54 | 3.24
Nc1ncnc2c1c(COc1cccc(Cl)c1)nn2C1CCOCC1 (top concentration 10000 nM) | 5.46 | -0.64 | -0.44 | 2.96 | -0.64 | -0.64 | 4.06 | 0.26 | -0.64 | 5.66 | 0.26 | 1.76 | 0.66 | -0.64 | -0.64 | -0.54 | 0.56 | -0.24 | -0.64 | -0.64
O=C(O)CNC(=O)c1c(O)c2ccccc2n(Cc2ccccc2)c1=O [IOX-2] (top concentration 50000 nM) | 8.98 | -0.82 | -0.82 | -0.82 | -0.82 | -0.82 | -0.82 | -0.82 | -0.82 | 2.48 | -0.82 | 1.78 | 0.88 | -0.82 | -0.82 | -0.42 | -0.12 | -0.82 | -0.82 | -0.82
CN(CC(=O)N(Cc1ccc(C2CCCCC2)cc1)c1ccc(C(=O)O)cc1)S(=O)(=O)c1c(F)c(F)c(F)c(F)c1F [SH-4-54] (top concentration 25000 nM) | 6.06 | -3.84 | -4.54 | -5.04 | -5.34 | -2.74 | -6.34 | -4.24 | -3.64 | -1.94 | -3.34 | -7.24 | -0.84 | -5.44 | -6.84 | -6.04 | -5.24 | -3.74 | -5.04 | -6.14
Cc1nc(C(=O)NCC(=O)O)c(O)c2ccc(Oc3ccccc3)cc12 [Roxadustat] (top concentration 10000 nM) | 7.48 | -1.12 | -1.02 | -0.52 | -1.12 | -1.12 | 1.08 | -1.12 | -1.12 | -0.92 | -1.12 | -1.12 | -1.12 | -1.12 | -1.12 | -0.82 | -1.12 | -0.52 | -1.12 | -1.12
N#Cc1ccnc(N2C(=O)CC[C@H]2C(=O)N(c2cncc(F)c2)[C@H](C(=O)NC2CC(F)(F)C2)c2ccccc2Cl)c1 [Ivosidenib] (top concentration 10000 nM) | 3 | 2 | 1 | 1.6 | 0 | 0 | 3.2 | 0.5 | 0 | 0.2 | 0 | 11.9 | 0 | 0 | 0 | 1 | 1.1 | 0.8 | 0.6 | 0
